Our source for the TGI values is PubChem BioAssay (NCI).

Among the test systems are 786-0 renal; RXF 393 renal; BT-549 breast; HCT-15 colon; A549 NSCLC; SW-620 colon; OVCAR-8 ovarian; SK-MEL-5 melanoma; OVCAR-5 ovarian; IGROV1 ovarian; K-562 leukemia; HCT-116 colon; UO-31 renal; HL-60(TB) leukemia; SF-295 CNS; KM12 colon; OVCAR-3 ovarian; SK-OV-3 ovarian; EKVX NSCLC; HOP-92 NSCLC.
What all share (test): DTP human tumour cell line panel, 48 h

SMILES strings stand for the structures.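 Test compounds were applied to cells in 96-well plates for 48 hours at 5 doses. TGI marks complete inhibition of growth.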

As for `Cc1ccc(Cc2n[nH]c(=O)n2-c2ccccc2)cc1`, the TGI in the test with 786-0 renal, with RXF 393 renal, in the test with BT-549 breast, with HCT-15 colon, in the test on A549 NSCLC and with SW-620 colon was greater than 100 µM in each case. The TGI in the test on OVCAR-8 ovarian, in the test on SK-MEL-5 melanoma, in the test on OVCAR-5 ovarian, with IGROV1 ovarian, with K-562 leukemia and in the test with HCT-116 colon was greater than 100 µM in each case. The TGI in the test on UO-31 renal, in the test with HL-60(TB) leukemia, in the test with SF-295 CNS and in the test with KM12 colon was greater than 100 µM in each case.
Take `Cc1ccc(O)c(C(c2ccc([N+](=O)[O-])cc2)c2cc(C)ccc2O)c1`: the TGI with 786-0 renal came to 44.5 µM; in the test with RXF 393 renal it was 26 µM; in the test with HCT-15 colon it was 23.8 µM; in the test with A549 NSCLC it was 25.6 µM; in the test on SW-620 colon, 32.1 µM; with OVCAR-8 ovarian, 30.7 µM. In addition, the TGI was greater than 100 µM in the test on SK-MEL-5 melanoma; 28.9 µM with OVCAR-5 ovarian; 25.2 µM in the test on IGROV1 ovarian; greater than 100 µM with K-562 leukemia; 19.9 µM in the test on OVCAR-3 ovarian; 30 µM in the test on SK-OV-3 ovarian. Moreover, the TGI came out at 40.6 µM in the test on HCT-116 colon; 15.2 µM in the test with UO-31 renal; 7.61 µM with HL-60(TB) leukemia; 31.3 µM with SF-295 CNS; 34.3 µM with EKVX NSCLC; 28.7 µM with HOP-92 NSCLC. The same molecule returned a TGI in the test with KM12 colon of 20.7 µM.
Regarding `Cn1c2c(c3ccccc31)CCN(CCN1CCN(c3ccccc3)CC1)C2=O`, the TGI is greater than 100 µM in the test on 786-0 renal; 83.4 µM with RXF 393 renal; greater than 100 µM with HCT-15 colon; greater than 100 µM in the test with A549 NSCLC; greater than 100 µM in the test on SW-620 colon; greater than 100 µM with OVCAR-8 ovarian. Further, the TGI in the test on SK-MEL-5 melanoma, in the test with IGROV1 ovarian, in the test on K-562 leukemia, in the test with SK-OV-3 ovarian, in the test with HCT-116 colon and in the test with UO-31 renal was greater than 100 µM each time. In addition, the TGI with HL-60(TB) leukemia was greater than 100 µM; in the test with SF-295 CNS, greater than 100 µM; in the test with EKVX NSCLC it was greater than 100 µM; in the test with HOP-92 NSCLC it was 96.5 µM.
With `CC1OC(n2ccc(=O)[nH]c2=O)C=C(OC(=O)c2ccccc2)C1=O` (configuration not stated), the TGI with 786-0 renal, in the test on RXF 393 renal, in the test with HCT-15 colon, with A549 NSCLC, with SW-620 colon and with OVCAR-8 ovarian was greater than 100 µM throughout. The TGI with SK-MEL-5 melanoma is greater than 100 µM; in the test on IGROV1 ovarian, greater than 100 µM; with K-562 leukemia, greater than 100 µM; with OVCAR-3 ovarian, 53.4 µM; in the test with SK-OV-3 ovarian, greater than 100 µM; in the test on UO-31 renal, greater than 100 µM. Further, the TGI is greater than 100 µM in the test with HL-60(TB) leukemia, greater than 100 µM in the test with SF-295 CNS, greater than 100 µM in the test with EKVX NSCLC and 99.6 µM in the test on HOP-92 NSCLC.
On to `COc1ccc(NC(=O)CC(=O)N2N=C(N(CCC#N)c3ccccc3Cl)CC2c2ccccc2)cc1` (configuration not stated), for which the TGI in the test with 786-0 renal, in the test with RXF 393 renal, in the test on HCT-15 colon, in the test on A549 NSCLC, in the test with SW-620 colon and with OVCAR-8 ovarian was greater than 100 µM throughout. Besides, the TGI in the test on SK-MEL-5 melanoma, with OVCAR-5 ovarian, with IGROV1 ovarian, with K-562 leukemia, in the test on OVCAR-3 ovarian and in the test on HCT-116 colon was greater than 100 µM each time. In addition, the TGI in the test on UO-31 renal, with HL-60(TB) leukemia, with SF-295 CNS, in the test on EKVX NSCLC, in the test on HOP-92 NSCLC and in the test with KM12 colon was greater than 100 µM in each case.
Consider `Nc1nc(NCCO)c(N=O)c(=O)[nH]1`, for which the TGI with 786-0 renal, with RXF 393 renal, in the test with HCT-15 colon, in the test on A549 NSCLC, in the test on SW-620 colon and in the test on OVCAR-8 ovarian was greater than 100 µM in each case. The TGI in the test on SK-MEL-5 melanoma, with OVCAR-5 ovarian, in the test on IGROV1 ovarian, in the test on K-562 leukemia, in the test with OVCAR-3 ovarian and in the test with SK-OV-3 ovarian was greater than 100 µM each time. The TGI in the test on HCT-116 colon, in the test with UO-31 renal, in the test on HL-60(TB) leukemia, with SF-295 CNS, in the test with EKVX NSCLC and in the test on HOP-92 NSCLC was greater than 100 µM in each case. In addition, the TGI in the test with KM12 colon is greater than 100 µM.
With `COc1cc(/C=N/n2c(Cc3ccc(Cl)cc3)n[nH]c2=O)cc(OC)c1OC`, the TGI in the test on 786-0 renal, in the test with RXF 393 renal, with BT-549 breast, in the test on HCT-15 colon, with A549 NSCLC and with SW-620 colon was greater than 100 µM in each case. Also, the TGI in the test with OVCAR-8 ovarian, in the test with OVCAR-5 ovarian, in the test on K-562 leukemia, with OVCAR-3 ovarian, in the test with SK-OV-3 ovarian and in the test with HCT-116 colon was greater than 100 µM throughout. For the same molecule, the TGI in the test with UO-31 renal, in the test on SF-295 CNS, with EKVX NSCLC and with KM12 colon was greater than 100 µM throughout.
As for `CCCCCCCc1cc(OC(=O)c2c(C)cc(OC)cc2O)cc(O)c1C(=O)O`, the TGI turned out to be 36.8 µM with 786-0 renal; 52.2 µM in the test with RXF 393 renal; 83.9 µM in the test on A549 NSCLC; 64.5 µM in the test on SW-620 colon; 77.9 µM in the test with OVCAR-8 ovarian; 40.7 µM in the test with SK-MEL-5 melanoma. Moreover, the TGI with OVCAR-5 ovarian is 32.1 µM; in the test with IGROV1 ovarian it was 55.3 µM; in the test with K-562 leukemia it was greater than 100 µM; in the test on OVCAR-3 ovarian, 28.7 µM; in the test on SK-OV-3 ovarian, 69.2 µM; in the test with UO-31 renal it was 30.6 µM. Besides, the TGI in the test on HL-60(TB) leukemia came out at 68.3 µM; in the test with SF-295 CNS, 50 µM; with EKVX NSCLC, 77 µM; in the test with HOP-92 NSCLC, 41.8 µM; with KM12 colon it was 46.2 µM.
